Where “and” joins values, the source holds several entries; their conditions need not be identical. Identical values can stand only once. Entries after “also recorded” stand apart in the source; their conditions may differ. No end group written: not given here.
What was measured:
axotomized RGCs [1] = experiment: RGC survival in optic nerve axotomy; assay type: in vivo
Excerpt: It is important to contrast the results in this glaucoma model with those published in optic nerve axotomy (where the optic nerve is sectioned or crushed and RGC axons are damaged). The two are very different models of RGC damage, where glaucoma is chronic and progressive and is an intraocular disease while axotomy is acute and is an extraocular disease. Thus, in optic nerve axotomy NTFs have been applied successfully. The survival of an axotomized optic nerve was promoted by NGF, BDNF, NT-4, CNTF, as well as bFGF, and GDNF.

TrkA = TrkA (Homo sapiens, UniProt P04629); details: irrespective of whether the p75 receptor is expressed; cited from earlier work
p75 receptor = target: T1, p75 receptor (Homo sapiens, UniProt P08138); details: cited from earlier work
T1 sequence (P08138 29-427): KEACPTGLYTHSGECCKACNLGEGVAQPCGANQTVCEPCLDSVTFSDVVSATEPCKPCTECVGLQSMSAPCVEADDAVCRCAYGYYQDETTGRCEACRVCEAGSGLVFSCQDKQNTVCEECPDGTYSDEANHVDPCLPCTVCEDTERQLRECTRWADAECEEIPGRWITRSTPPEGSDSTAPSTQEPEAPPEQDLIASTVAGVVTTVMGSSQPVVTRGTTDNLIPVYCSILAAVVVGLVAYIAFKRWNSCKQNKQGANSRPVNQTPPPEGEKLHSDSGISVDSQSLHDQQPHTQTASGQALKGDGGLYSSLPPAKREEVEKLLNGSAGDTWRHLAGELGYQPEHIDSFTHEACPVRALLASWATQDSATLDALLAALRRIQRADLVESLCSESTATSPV

CNS = details: cited from earlier work
[2] = test system: retinal ganglion cells (RGCs); experiment: RGC loss in ocular hypertension (glaucoma) model, retrogradely labeled surviving RGCs counted in flat mounted retinas;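 for all read-outs here: female Wistar rats aged 8 weeks with three episcleral veins cauterized in the right eye, sham-operated left eye as normal IOP control, at least six retinas averaged per group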; details: for % RGCs loss at day 49 (vs. Normal) / % RGCs loss at day 42 (vs. Norma): cauterized eye; for RGC loss (% of normal IOP): +daily betaxolol (days 4-35)
Protocol: Using retrograde tracers, surviving RGCs were labeled at the cell soma and flat retinal spreads were analyzed for RGC numbers (Table 2).
Surviving RGCs, identified by retrograde labeling, were counted at day 42 post-surgery. In this protocol, the TrkA agonist or controls were not given between days 21 and 42, to evaluate whether any protection could be long-lived. […] Each data point represents the average of at least 6 retinas/experimental group±sd. […] Peptidomimetic D3 (TrkA agonist) or controls were injected intraocularly, each injection at 1 μg in 1 μl. […] Retrogradely labeled surviving RGCs at day 42 post-cauterization were counted in flat mounted retinas (except rows 3 and 4 that were terminated at days 14 and 28). Two investigators counted the RGCs, with one unaware of the groups.
Episcleral cauterization was performed under anesthesia in Wistar rats, female, 8 weeks of age. After a conjunctival incision, extra-ocular muscles were isolated and the major limbal draining veins were identified based on location, relative immobility, larger caliber and branching pattern. Cauterization of three episcleral vessels in the right eye were done with a 30″ cautery tip. The left eye in each animal was used as normal IOP control after sham-surgery (conjuctival incisions with no cauterization). […] Planar ophthalmoscopy was used to confirm normal perfusion of the retina at elevated IOP. […] IOP was measured using a Tonopen XL tonometer under light anesthesia (intramuscular injection of ketamine, 4 mg/kg; xylazine, 0.32 mg/kg; and acepromazine, 0.4 mg/kg). Initially IOP was measured daily (three consecutive readings are taken each time) and then weekly until termination.
A puncture was made in the eye wall with a 30 G needle to place a cannula in the orbit. The tip of the needle was inserted at a 45° angle through the sclera into the vitreous body. This route of administration avoided injury to eye structures.

axotomized RGCs [3] = details: other studies; cited from earlier work
[4] = test system: intraocular pressure (IOP) of rat eyes
Excerpt: High IOP was induced in rat eyes, by reducing aqueous humor outflow through episcleral vein cauterization, while the contralateral eyes were sham-operated and were used as controls (FIG. 2).

[5] = daily betaxolol days 14-49 (~17 days of high IOP), intraocular injections at days 14 & 21
[6] = daily betaxolol days 14 to 42 (~17 days of high IOP), intraocular injections 1 μg at days 14 & 21
[7] = no betaxolol, 42 days of high IOP, intraocular injections 1 μg at days 14 & 21
[8] = no betaxolol, 49 days of high IOP, intraocular injections at days 14 & 21

TrkA, sequence (P04629 33-796, species assumed): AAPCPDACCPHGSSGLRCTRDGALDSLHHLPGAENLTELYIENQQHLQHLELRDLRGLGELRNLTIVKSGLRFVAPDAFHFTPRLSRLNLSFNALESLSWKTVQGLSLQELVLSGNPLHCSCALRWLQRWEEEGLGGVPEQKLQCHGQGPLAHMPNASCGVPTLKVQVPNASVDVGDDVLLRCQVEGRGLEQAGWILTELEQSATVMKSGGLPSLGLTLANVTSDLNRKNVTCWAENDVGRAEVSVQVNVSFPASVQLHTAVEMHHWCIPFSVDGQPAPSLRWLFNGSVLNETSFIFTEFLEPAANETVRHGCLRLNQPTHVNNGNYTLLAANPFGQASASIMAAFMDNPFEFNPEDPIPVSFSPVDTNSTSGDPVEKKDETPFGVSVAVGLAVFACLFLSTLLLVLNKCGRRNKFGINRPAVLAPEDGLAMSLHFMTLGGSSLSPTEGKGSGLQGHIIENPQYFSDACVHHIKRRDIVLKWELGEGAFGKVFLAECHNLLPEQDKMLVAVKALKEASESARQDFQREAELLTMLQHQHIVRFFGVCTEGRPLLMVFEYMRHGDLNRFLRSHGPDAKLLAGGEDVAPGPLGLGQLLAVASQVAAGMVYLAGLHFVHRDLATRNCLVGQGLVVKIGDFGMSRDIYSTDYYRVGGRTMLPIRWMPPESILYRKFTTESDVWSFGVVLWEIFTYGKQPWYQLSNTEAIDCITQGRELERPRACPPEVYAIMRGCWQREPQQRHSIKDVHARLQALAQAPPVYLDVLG

In the case of `NCCCC[C@@H]1NC(=O)C(CCC(=O)O)NC(=O)c2cc([N+](=O)[O-])ccc2OCCC(C(=O)NCC(=O)O)NC1=O` (stereo partly drawn) [D3], the “survival of axotomized RGCs” value (axotomized RGCs [1]) is given as “strong survival-promoting effects”, the “activity at TrkA” value (TrkA) is given as “selective partial agonist” and the “binding to p75” value (p75 receptor) is given as “does not bind”. For the same molecule, the “effect on cholinergic neurons in the CNS” value (CNS; evaluated previously, spatial memory tests) was “protect the number, phenotype, and function of cholinergic neurons”, the “% RGCs loss at day 49 (vs. Normal)” value [2, 5] was 18 ± 6% and the “% RGCs loss at day 42 (vs. Norma)” value [2, 6] was 11% and 11 ± 4%. For the same molecule, the “% RGCs loss at day 42 (vs. Norma)” value [2, 7] was 29% and 29 ± 3%, the “% RGCs loss at day 49 (vs. Normal)” value [2, 8] was 26 ± 6% and the “protection of RGCs, formula (testloss−day14loss)/(day42loss−day14loss)*100” value ([2]; day 42, intraocular injections at days 14 and 21, no betaxolol) was roughly 25%. For the same molecule, the “protection of RGCs” value ([2]; day 42, intraocular injections at days 14 and 21 in combination with daily betaxolol) was greater than 90% and the “effect on RGC survival / apoptosis” value ([2]; day 49 glaucoma, intraocular injections at days 14 and 21, alone or with betaxolol) was “markedly reduced RGC apoptosis”.
For “YCATDIKGKECY (also: cyclic) [C(28-35) peptide]”, the “protection of RGCs in vivo in optic nerve axotomy” value (axotomized RGCs [3]) is given as “short-term protection”, the “effect on p75-NGF interactions” value (p75 receptor) is given as “antagonist” and the “in vivo stability and efficacy in the CNS” value (CNS; previous in vivo studies) is given as “in vivo stability and efficacy”. For the same molecule, the “% RGCs loss at day 49 (vs. Normal)” value [2, 5] was 29 ± 4%, the “% RGCs loss at day 49 (vs. Normal)” value [2, 8] was 32 ± 11% and the “effect on RGC survival / apoptosis” value ([2]; rat, in vivo) was “did not enhance RGC survival; also recorded: did not prevent or reduce RGC death”.
For `CC(C)NCC(O)COc1ccc(CCOCC2CC2)cc1` (stereo not drawn) [Betaxolol, betaxolol, reference compound], the “IOP by day 7” value ([4]; cauterized rats receiving daily topical betaxolol) was “normal IOPs”, the “effect on normal IOP of non-cauterized eyes” value ([4]; daily topical betaxolol, normal eyes) was “no significant effect” and the “% RGCs loss at day 49 (vs. Normal)” value ([2]; daily betaxolol days 14-49 alone, no intraocular injection) was 27 ± 5%. For the same molecule, the “% RGCs loss at day 49 (vs. Normal)” value ([2]; daily betaxolol days 14-49 alone, no intraocular injection, listed as betaxolol) was 27%, the “% RGCs loss at day 42 (vs. Norma)” value ([2]; daily betaxolol days 14 to 42 alone, no intraocular injection) was 21 ± 2% and the “% RGCs loss at day 42 (vs. Norma)” value ([2]; daily betaxolol days 14 to 42 alone, no intraocular injection, listed as betaxolol) was 21%. The “RGC loss (% of normal IOP)” value ([2]; day 0 post-cautery) was 0%, the “RGC loss (% of normal IOP)” value ([2]; day 7 post-cautery) was 3 ± 3% and the “RGC loss (% of normal IOP)” value ([2]; day 14 post-cautery) was 4 ± 3%. For the same molecule, the “RGC loss (% of normal IOP)” value ([2]; day 21 post-cautery) was 7 ± 3%, the “RGC loss (% of normal IOP)” value ([2]; day 28 post-cautery) was 10 ± 4% and the “RGC loss (% of normal IOP)” value ([2]; day 35 post-cautery) was 14 ± 2%. For the same molecule, the “RGC loss (% of normal IOP)” value ([2]; day 42 post-cautery) was 20 ± 5%.
For “NGF: Nerve Growth Factor, neurotrophin that binds TrkA and p75”, the “% RGCs loss at day 42 (vs. Norma)” value [2, 6] was 19 ± 4%, the “% RGCs loss at day 42 (vs. Norma)” value [2, 7] was 42 ± 5% and the “protection of RGCs from death” value ([2]; day 42 glaucoma, intraocular injections, with or without betaxolol) was “did not protect”.
